The values below come from paper PMC8126241, “Active Components from Cassia abbreviata Prevent HIV-1 Entry by Distinct Mechanisms of Action” (International Journal of Molecular Sciences, 2021).

For one data set, the system named is Coxsackie virus B4. Kind of data set: Broad spectrum antiviral activity, HeLa cells. The class given is cell-based. The note with it: Enterovirus B.
The test system of data set [1] is DC-SIGN-captured virus transmission to CD4+ T cells. Description: HIV-1 DC-SIGN transmission assay. The class given is cell-based. The conditions noted are these: in vitro, data not shown. On the procedure: (§1) Dual chamber transmission assay was performed as previously described. HeLa cells were seeded into an upper chamber of a transwell plate (Sigma-Aldrich, Liège, Belgium), while TZM-bl cells were seeded in the lower chamber. Trans Epithelial Electric Resistance (TEER) was measured using Millicell-ERS Volt-Ohm Meter. HIV-1 ADA-M (200 pg) and drugs were added to the upper chamber after 4 days when TEER reached 150 Ohm/cm^2. 24 h after infection luciferase value of TZM-bl cells lysate was measured using the Luciferase System Kit and the POLARstar Omega Plate Reader. Data were analyzed using GraphPrism. The HIV-1 DC-SIGN transmission assay was performed as previously described.

Data set [2] relates to HIV-1 gp120 / CD4 binding. Description: CD4-gp120 interaction assay (ELISA). The note with it: in-house ELISA. On the procedure: Human soluble CD4 (sCD4) was immobilized in a 96-well plate by adding 100 ng sCD4 (R&D Systems, Belgium) in 100 μL PBS per well and incubated at 4 °C. After 24 h, the CD4 coated plate was washed with 1% BSA-PBS and blocked by adding 100μL 5% BSA-PBS per well for 1 h at 4 °C. The coated plate was then washed and incubated with or without drugs for 1 h at 4 °C. After washing, 100 ng HIV-1 gp120 protein (Fitzgerald, Acton, MA, USA) was added into the plate and kept for 1 h at 4 °C. The plate was washed, and anti-HIV-1 gp120 (Aalto Bio Reagents, Dublin, Ireland) (100 ng/100 μL PBS) was added. After 1 h, the plate was washed and anti-sheep HRP (Sigma, Belgium) (100 ng/100 μL PBS) was added. After 1 h incubation at 4 °C, 100 μL o-phenylenediamine dihydrochloride (OPD) (Thermo Fisher, Asse, Belgium) was added and incubated for 20 min in dark. One hundred microliters 0.5M H2SO4 was finally added to stop the reaction. OD492 and OD630 were measured by POLARstart Omega Plate Reader. OD492 − OD630 was calculated.
(ELISA stands for enzyme-linked immunosorbent assay.)

The next data set deals with T1, CCR5 (Homo sapiens, UniProt P51681).
T1 construct: host or cells: U373-CD4-CCR5 cells
Kind of data set: Binding competition with anti-CCR5 antibody 2D7. The note with it: anti-CCR5 antibody 2D7, U373-CD4-CCR5 cells. On the procedure:
Binding competition between increasing concentrations of compounds and FITC-conjugated mouse anti-human CD4 clone RPA-4 (Biolegend, Amsterdam, Netherlands), PE-conjugated mouse anti-Human CXCR4 clone 12G5, and PE-conjugated mouse anti-human CCR5 clone 2D7 (BD Pharma, Aalst, Belgium) to U373-CD4-CXCR4 and U373-CD4-CCR5 cells was first tested by flow cytometry (FACSCanto). […] After 1 h of incubation at 4 °C, cells were washed with FACS buffer (1% bovine serum albumin, 0.1% N3Na in PBS, Sigma), and Mean Fluorescence Intensity (MFI) was measured. […] Internalization was stopped after 30 min by addition of NaN3 (0.1%) on ice. Cells were stained with anti-human CXCR4 clone 4G10 (BD, Belgium) or anti-human CCR5 (CD195) clone T21/8, (eBioscience, Asse, Belgium), Near-IR fluorescent reactive dye during 1 h at 4 °C, washed with FACS buffer, and a secondary PE-conjugated goat anti-mouse antibody (Jackson ImmunoResearch, West Grove, PA, USA).

Data set [3] concerns PBMCs. It counts as cell-based, human. On the procedure: To measure apoptosis, PBMCs were incubated with or without drugs in a 96-well round bottom plate at 2 × 10^5/200 μL/well. After 2 days, cells were washed with PBS and stained with 2.5 μL Annexin-V-APC (Biosciences, Aalst, Belgium) in 100 μL staining buffer containing 10 mmol/L HEPES pH7.4, 140 mmol/L NaCl, and 2.5 mmol/L CaCl2 for 20 min at room temperature in dark. Cells were then washed with staining buffer and incubated with 100 μL 0.1 μg/mL propidium iodide (PI) (Thermo Fisher, Asse, Belgium) for 5 min at room temperature in dark. Stained cells were measured by flow cytometry (FACSCanto, BD, Aalst, Belgium).

Data set [4] has as its system pseudotype virus pNL4.3ΔEnvLuc-HXB2. The conditions noted are these: multi-dosing time assay.
A further data set has as its system HIV-1. The conditions noted are these: read-out: IC50 HIV-1 replication; ref Clouser et al. [24]; cited from earlier work.
For another data set, the system named is Reovirus-1. Kind of data set: Broad spectrum antiviral activity, vero cells. The class given is cell-based.
A further data set deals with HeLa cells. On the procedure:
as §1

Data set [5] has as its system Herpes simplex virus-1 TK KOS ACV. Description: Broad spectrum antiviral activity, HEL cells. It counts as cell-based. The note with it: Human alphaherpesvirus 1, HEL.
For data set [6], the system named is PBMCs.
Data set [7] has as its system Feline corona virus (FIPV). Description: Broad spectrum antiviral activity, CRFK cells. It counts as cell-based. The note with it: Alphacoronavirus 1.
The test system of a further data set is HIV-1 ADA-M. Description: microbe, parasite or virus in culture. The conditions noted are these: Human immunodeficiency virus 1, PBMC, 168 h, read-out: IC50 HIV-1 ADA-M.
Data set [8] has as its system PBMCs. The class given is cell-based, human. On the procedure:
To assess drug cytotoxicity, PBMCs were incubated with or without drugs in a 96-well round bottom plate (Thermo Fisher, Asse, Belgium) at 2 × 10^5/200 μL/well. After 2 days, cells were washed with PBS and stained with 0.1 μL near-IR fluorescent reactive dye (Life technologies, Ghent, Belgium) in 100 μL PBS for 20 min at room temperature in dark. Stained cells were measured by flow cytometry (FACSCanto, BD biosciences, Belgium).
The source holds these as a separate data set.

A further data set concerns HIV-1 IIIB. Kind of data set: microbe, parasite or virus in culture. The note with it: Human immunodeficiency virus 1, IIIB, PBMC, 168 h, read-out: IC50 HIV-1 IIIB.
The subject of data set [9] is non-B HIV-1 primary clinical isolate #1. Description: microbe, parasite or virus in culture. The conditions noted are these: Human immunodeficiency virus 1, PBMC, 168 h, read-out: IC50 non-B HIV-1 primary clinical isolate (first named).
The test system of a further data set is Influenza B B/Ned/537/05. Kind of data set: microbe, parasite or virus in culture. The class given is cell-based. The conditions noted are these: MDCK cells.
The next data set has as its system Hepatitis C virus (Jc1). Description: Broad spectrum antiviral activity, Huh 7-D cells. It counts as cell-based.
The test system of a further data set is sindbisvirus. Description: Broad spectrum antiviral activity, vero cells. The class given is cell-based.

By IC50 is commonly meant the concentration needed to halve the response being measured.

T1 sequence (P51681 whole entry): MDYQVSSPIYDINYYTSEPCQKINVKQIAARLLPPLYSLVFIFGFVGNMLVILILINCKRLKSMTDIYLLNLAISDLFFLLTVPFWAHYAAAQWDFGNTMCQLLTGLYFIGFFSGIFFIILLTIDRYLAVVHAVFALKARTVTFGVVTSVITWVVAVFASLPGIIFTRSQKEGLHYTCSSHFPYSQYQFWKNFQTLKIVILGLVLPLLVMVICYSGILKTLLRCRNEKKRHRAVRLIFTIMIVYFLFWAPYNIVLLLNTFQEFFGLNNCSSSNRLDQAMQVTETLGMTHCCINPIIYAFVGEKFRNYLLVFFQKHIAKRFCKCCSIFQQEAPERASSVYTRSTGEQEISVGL

For the molecule `Oc1cc(O)cc(/C=C/c2ccc(O)c(O)c2)c1` [piceatannol, trans-3,3′,4,5′-tetrahydroxystilbene], the half-maximal inhibitory concentration (IC50) in the data set on Coxsackie virus B4 was more than 100 µM; with HIV-1, 21.4 µM; with Reovirus-1, more than 100 µM; in data set [5], 45.4 ± 4 µM; in [7], more than 100 µM; in the data set with HIV-1 ADA-M it was 19.9 ± 0.22 µM. For the same molecule, the half-maximal inhibitory concentration (IC50) in the data set on HIV-1 IIIB was 24.2 ± 7.13 µM; in [9], 37.7 ± 12.5 µM; in the data set with Influenza B B/Ned/537/05, more than 100 µM; in the data set with Hepatitis C virus (Jc1), more than 100 µM; in the data set on sindbisvirus, more than 100 µM. In data set [1], the “Prevention of transmission of DC-SIGN-captured virus to CD4+ T cells” value is reported as “did not prevent”. Besides, the “Inhibition of gp120/CD4 binding” value in data set [2] is recorded as “did not”. In addition, at CCR5, the “Inhibition of CCR5 binding” value was “neither CE nor piceatannol did”. The “Induction of apoptosis in PBMCs” value with PBMCs [3] was “did not induce any apoptosis”. For the same molecule, the “Inhibitory effect when added after infection” value in data set [4] (2 h after spinoculation (post-infection)) is “did not find any effect”. In addition, the “Inhibitory effect when pre-incubated with cells” value in data set [4] (2 h pre-incubation on cells, HXB2 and BAL pseudotypes) is “inhibited HIV-1 infection at high concentration”. In addition, the “Inhibitory effect when pre-incubated with the virus” value in [4] (2 h pre-incubation on virus, HXB2 and BAL pseudotypes) was “not pre-incubated with the virus”. Also, in the data set with HeLa cells, the “Effect on confluence layer's TEER and epithelial cells viability” value is listed as “without affecting”. The “Effect on expression of CD25 and CD69” value in the data set on PBMCs [6] was “did not have any effect”. Also, the “Cytotoxicity in PBMCs” value in the data set with PBMCs [8] is recorded as “not cytotoxic”.
